Test results: patent US5602153A, “Method of using 1-arylheteroarylalkyl substituted-1H-1,2,4-triazole compounds for treatment of a giaucoma disorder” (G.D. Searle & Co., priority 1993, dated 1997)

Experiments:
pressor response to AII [1] = experiment: Assay D: In Vivo Intragastric Pressor Assay Response for AII Antagonists of Examples #1 and #3; design: species or system rat (male Sprague-Dawley); settings: 3 mg/kg gavage
Protocol: Assay D: In Vivo Intragastric Pressor Assay Response for AII Antagonists of Examples #1 and #3
Male Sprague-Dawley rats weighing 225-300 grams were anesthetized with methohexital (30 mg/kg, i.p.) and catheters were implanted into the femoral artery and vein. The catheters were tunneled subcutaneously to exit dorsally, posterior to the head and between the scapulae. The catheters were filled with heparin (1000 units/ml of saline). The rats were returned to their cage and allowed regular rat chow and water ad libitum. After full recovery from surgery (3-4 days), rats were placed in Lucite holders and the arterial line was connected to a pressure transducer. Arterial pressure was recorded on a Gould polygraph (mmHg). Angiotensin II was administered as a 30 ng/kg bolus via the venous catheter delivered in a 50 μl volume with a 0.2 ml saline flush. The pressor response in mm Hg was measured by the difference from pre-injection arterial pressure to the maximum pressure achieved. The AII injection was repeated every 10 minutes until three consecutive injections yielded responses within 4 mmHg of each other. These three responses were then averaged and represented the control response to AII. The test compound was suspended in 0.5% methylcellulose in water and was administered by gavage. The volume administered was 2 ml/kg body weight. The standard dose was 3 mg/kg. […] The pressor response to AII was measured at each time point. The rats were then returned to their cage for future testing. A minimum of 3 days was allowed between tests. Percent inhibition was calculated for each time point following gavage by the following formula: [(Control Response-Response at time point)/Control Response]×100.

pressor response to AII [2] = experiment: Assay C: In Vivo Intragastric Pressor Assay Response for AII Antagonists; design: species or system rat (male Sprague-Dawley); settings: po; 3 mg/kg i.g., rat, AII 30 ng/kg bolus
Protocol: Assay C: In Vivo Intragastric Pressor Assay Response for AII Antagonists of the Invention
Male Sprague-Dawley rats weighing 225-300 grams were anesthetized with methohexital (30 mg/kg, i.p.) and catheters were implanted into the femoral artery and vein. The catheters were tunneled subcutaneously to exit dorsally, posterior to the head and between the scapulae. The catheters were filled with heparin (1000 units/ml of saline). The rats were returned to their cage and allowed regular rat chow and water ad libitum. After full recovery from surgery (3-4 days), rats were placed in Lucite holders and the arterial line was connected to a pressure transducer. Arterial pressure was recorded on a Gould polygraph (mmHg). Angiotensin II was administered as a 30 ng/kg bolus via the venous catheter delivered in a 50 μl volume with a 0.2 ml saline flush. The pressor response in mmHg was measured by the difference from pre-injectionarterial pressure to the maximum pressure achieved. The AII injection was repeated every 10 minutes until three consecutive injections yielded responses within 4 mmHg of each other. These three responses were then averaged and represented the control response to AII. The test compound was suspended in 0.5% methylcellulose in water and was administered by gavage. The volume administered was 2 ml/kg body weight. The standard dose was 3 mg/kg. Angiotensin II bolus injections were given at 30, 45, 60, 75, 120, 150, and 180 minutes after gavage. The pressor response to AII was measured at each time point. The rats were then returned to their cage for future testing. A minimum of 3 days was allowed between tests. Percent inhibition was calculated for each time point following gavage by the following formula: [(Control Response-Response at time point)/Control Response]×100.

SMILES: CCCCc1nc(CCCC)n(Cc2ccc(-c3ccccc3-c3nnn[nH]3)cn2)n1 [Example 1, 5-[2-[6-[(3,5-dibutyl-1H-1,2,4-triazol-1-yl)methyl]-3-pyridinyl]phenyl]-1H-tetrazole]
- % Inhibition of Blood Pressure Elevation (pressor response to AII [1]; Rat A, 0 min): 0%
- % Inhibition of Blood Pressure Elevation (pressor response to AII [1]; Rat A, 30 min): 14%
- % Inhibition of Blood Pressure Elevation (pressor response to AII [1]; Rat A, 45 min): 20%
- % Inhibition of Blood Pressure Elevation (pressor response to AII [1]; Rat A, 60 min): 40%
- % Inhibition of Blood Pressure Elevation (pressor response to AII [1]; Rat A, 75 min): 33%
- % Inhibition of Blood Pressure Elevation (pressor response to AII [1]; Rat A, 90 min): 37%
- % Inhibition of Blood Pressure Elevation (pressor response to AII [1]; Rat A, 120 min): 37%
- % Inhibition of Blood Pressure Elevation (pressor response to AII [1]; Rat A, 150 min): 40%
- % Inhibition of Blood Pressure Elevation (pressor response to AII [1]; Rat A, 180 min): 33%
- % Inhibition of Blood Pressure Elevation (pressor response to AII [1]; Rat B, 0 min): 0%
- % Inhibition of Blood Pressure Elevation (pressor response to AII [1]; Rat B, 30 min): 11%
- % Inhibition of Blood Pressure Elevation (pressor response to AII [1]; Rat B, 45 min): 15%
- % Inhibition of Blood Pressure Elevation (pressor response to AII [1]; Rat B, 60 min): 26%
- % Inhibition of Blood Pressure Elevation (pressor response to AII [1]; Rat B, 75 min): 23%
- % Inhibition of Blood Pressure Elevation (pressor response to AII [1]; Rat B, 90 min): 21%
- % Inhibition of Blood Pressure Elevation (pressor response to AII [1]; Rat B, 120 min): 23%
- % Inhibition of Blood Pressure Elevation (pressor response to AII [1]; Rat B, 150 min): 23%
- % Inhibition of Blood Pressure Elevation (pressor response to AII [1]; Rat B, 180 min): 13%
- % Inhibition of Blood Pressure Elevation (pressor response to AII [1]; Rat C, 0 min): 0%
- % Inhibition of Blood Pressure Elevation (pressor response to AII [1]; Rat C, 30 min): 16%
- % Inhibition of Blood Pressure Elevation (pressor response to AII [1]; Rat C, 45 min): 6%
- % Inhibition of Blood Pressure Elevation (pressor response to AII [1]; Rat C, 60 min): 29%
- % Inhibition of Blood Pressure Elevation (pressor response to AII [1]; Rat C, 75 min): 2%
- % Inhibition of Blood Pressure Elevation (pressor response to AII [1]; Rat C, 90 min): 10%
- % Inhibition of Blood Pressure Elevation (pressor response to AII [1]; Rat C, 120 min): 16%
- % Inhibition of Blood Pressure Elevation (pressor response to AII [1]; Rat C, 150 min): -4%
- % Inhibition of Blood Pressure Elevation (pressor response to AII [1]; Rat C, 180 min): 10%
- % Inhibition of Blood Pressure Elevation (pressor response to AII [1]; Rats A-C Mean ± SE, 30 min): 14 ± 2%
- % Inhibition of Blood Pressure Elevation (pressor response to AII [1]; Rats A-C Mean ± SE, 45 min): 14 ± 4%
- % Inhibition of Blood Pressure Elevation (pressor response to AII [1]; Rats A-C Mean ± SE, 60 min): 31 ± 4%
- % Inhibition of Blood Pressure Elevation (pressor response to AII [1]; Rats A-C Mean ± SE, 75 min): 20 ± 9%
- % Inhibition of Blood Pressure Elevation (pressor response to AII [1]; Rats A-C Mean ± SE, 90 min): 23 ± 8%
- % Inhibition of Blood Pressure Elevation (pressor response to AII [1]; Rats A-C Mean ± SE, 120 min): 26 ± 6%
- % Inhibition of Blood Pressure Elevation (pressor response to AII [1]; Rats A-C Mean ± SE, 150 min): 20 ± 13%
- % Inhibition of Blood Pressure Elevation (pressor response to AII [1]; Rats A-C Mean ± SE, 180 min): 19 ± 7%
- inhibition in vivo at 3 mg/kg (pressor response to AII [2]): 20%

SMILES: CCCCc1nc(CCCC)n(Cc2ccc(-c3ccccc3-c3nnn[nH]3)nc2)n1 [Example 3, 5-[2-[5-[(3,5-dibutyl-1H-1,2,4-triazol-1-yl)methyl]-2-pyridinyl]phenyl]-1H-tetrazole]
- % Inhibition of Blood Pressure Elevation (pressor response to AII [1]; Rat A, 0 min): 0%
- % Inhibition of Blood Pressure Elevation (pressor response to AII [1]; Rat A, 30 min): 64%
- % Inhibition of Blood Pressure Elevation (pressor response to AII [1]; Rat A, 45 min): 67%
- % Inhibition of Blood Pressure Elevation (pressor response to AII [1]; Rat A, 60 min): 52%
- % Inhibition of Blood Pressure Elevation (pressor response to AII [1]; Rat A, 75 min): 45%
- % Inhibition of Blood Pressure Elevation (pressor response to AII [1]; Rat A, 90 min): 60%
- % Inhibition of Blood Pressure Elevation (pressor response to AII [1]; Rat A, 120 min): 41%
- % Inhibition of Blood Pressure Elevation (pressor response to AII [1]; Rat A, 150 min): 38%
- % Inhibition of Blood Pressure Elevation (pressor response to AII [1]; Rat A, 180 min): 24%
- % Inhibition of Blood Pressure Elevation (pressor response to AII [1]; Rat B, 0 min): 0%
- % Inhibition of Blood Pressure Elevation (pressor response to AII [1]; Rat B, 30 min): 55%
- % Inhibition of Blood Pressure Elevation (pressor response to AII [1]; Rat B, 45 min): 71%
- % Inhibition of Blood Pressure Elevation (pressor response to AII [1]; Rat B, 60 min): 55%
- % Inhibition of Blood Pressure Elevation (pressor response to AII [1]; Rat B, 75 min): 53%
- % Inhibition of Blood Pressure Elevation (pressor response to AII [1]; Rat B, 90 min): 50%
- % Inhibition of Blood Pressure Elevation (pressor response to AII [1]; Rat B, 120 min): 50%
- % Inhibition of Blood Pressure Elevation (pressor response to AII [1]; Rat B, 150 min): 53%
- % Inhibition of Blood Pressure Elevation (pressor response to AII [1]; Rat B, 180 min): 40%
- % Inhibition of Blood Pressure Elevation (pressor response to AII [1]; Rat C, 0 min): 0%
- % Inhibition of Blood Pressure Elevation (pressor response to AII [1]; Rat C, 30 min): 15%
- % Inhibition of Blood Pressure Elevation (pressor response to AII [1]; Rat C, 45 min): 12%
- % Inhibition of Blood Pressure Elevation (pressor response to AII [1]; Rat C, 60 min): 46%
- % Inhibition of Blood Pressure Elevation (pressor response to AII [1]; Rat C, 75 min): 27%
- % Inhibition of Blood Pressure Elevation (pressor response to AII [1]; Rat C, 90 min): 46%
- % Inhibition of Blood Pressure Elevation (pressor response to AII [1]; Rat C, 120 min): 53%
- % Inhibition of Blood Pressure Elevation (pressor response to AII [1]; Rat C, 150 min): 50%
- % Inhibition of Blood Pressure Elevation (pressor response to AII [1]; Rat C, 180 min): 62%
- % Inhibition of Blood Pressure Elevation (pressor response to AII [1]; Rat D, 0 min): 0%
- % Inhibition of Blood Pressure Elevation (pressor response to AII [1]; Rat D, 30 min): 21%
- % Inhibition of Blood Pressure Elevation (pressor response to AII [1]; Rat D, 45 min): 14%
- % Inhibition of Blood Pressure Elevation (pressor response to AII [1]; Rat D, 60 min): 36%
- % Inhibition of Blood Pressure Elevation (pressor response to AII [1]; Rat D, 75 min): 36%
- % Inhibition of Blood Pressure Elevation (pressor response to AII [1]; Rat D, 90 min): 26%
- % Inhibition of Blood Pressure Elevation (pressor response to AII [1]; Rat D, 120 min): 34%
- % Inhibition of Blood Pressure Elevation (pressor response to AII [1]; Rat D, 150 min): 29%
- % Inhibition of Blood Pressure Elevation (pressor response to AII [1]; Rat D, 180 min): 3%
- % Inhibition of Blood Pressure Elevation (pressor response to AII [1]; Rat E, 0 min): 0%
- % Inhibition of Blood Pressure Elevation (pressor response to AII [1]; Rat E, 30 min): 52%
- % Inhibition of Blood Pressure Elevation (pressor response to AII [1]; Rat E, 45 min): 43%
- % Inhibition of Blood Pressure Elevation (pressor response to AII [1]; Rat E, 60 min): 38%
- % Inhibition of Blood Pressure Elevation (pressor response to AII [1]; Rat E, 75 min): 43%
- % Inhibition of Blood Pressure Elevation (pressor response to AII [1]; Rat E, 90 min): 29%
- % Inhibition of Blood Pressure Elevation (pressor response to AII [1]; Rat E, 120 min): 29%
- % Inhibition of Blood Pressure Elevation (pressor response to AII [1]; Rat E, 150 min): 16%
- % Inhibition of Blood Pressure Elevation (pressor response to AII [1]; Rat E, 180 min): 16%
- % Inhibition of Blood Pressure Elevation (pressor response to AII [1]; Rats A-E Mean ± SE, 0 min): 0%
- % Inhibition of Blood Pressure Elevation (pressor response to AII [1]; Rats A-E Mean ± SE, 30 min): 42 ± 10%
- % Inhibition of Blood Pressure Elevation (pressor response to AII [1]; Rats A-E Mean ± SE, 45 min): 41 ± 13%
- % Inhibition of Blood Pressure Elevation (pressor response to AII [1]; Rats A-E Mean ± SE, 60 min): 46 ± 4%
- % Inhibition of Blood Pressure Elevation (pressor response to AII [1]; Rats A-E Mean ± SE, 75 min): 41 ± 4%
- % Inhibition of Blood Pressure Elevation (pressor response to AII [1]; Rats A-E Mean ± SE, 90 min): 42 ± 6%
- % Inhibition of Blood Pressure Elevation (pressor response to AII [1]; Rats A-E Mean ± SE, 120 min): 41 ± 5%
- % Inhibition of Blood Pressure Elevation (pressor response to AII [1]; Rats A-E Mean ± SE, 150 min): 37 ± 7%
- % Inhibition of Blood Pressure Elevation (pressor response to AII [1]; Rats A-E Mean ± SE, 180 min): 29 ± 10%
- inhibition in vivo at 3 mg/kg (pressor response to AII [2]): 40%
